Assays:
[1] = tested on: vesicular sequestration of acetylcholine; details: cited from earlier work
cholinergic neurons [2] = assay: Tissue distribution of radiotracer in mouse brain and tissues 4 h after intravenous injection (Example 9, Table II); details: 4 h after i.v. injection
cholinergic neurons [3] = assay: Temporal pattern of distribution in mouse brain, 4 to 24 h (FIGS. 3 and 4); format: in vivo, female CD-1 mice
in vivo = details: mouse, iv
cholinergic neurons [4] = assay: Blocking of tracer accumulation by pretreatment with unlabeled (-)-vesamicol; details: i.p.
[5] = Physiological activity of the enantiomers
striatum = assay: In vivo autoradiography in rat; details: 90 min after i.v. injection
Experimental: injection. Controls received an equal volume of vehicle. In vivo
autoradiography in rat 90 min after i.v. injection of 5[^125 I]IBVM

[6] = Brain distribution of 5-[125I]iodobenzovesamicol in mice, control and blocked (Example 10, Table III); format: in vivo, CD-1 mice; details: mouse, iv, 10 uCi, normalized to a 20 g mouse
Experimental: (§1) Radioactive compound 13 as prepared above in Example 1 was dissolved in ethanol/0.005M sodium acetate (1/9) buffer (pH 4.5) at 1 mCi/ml and 10 μCi of the solution was administered intravenously to lightly etherized CD-1 mice. Animals were sacrificed at various time points after injection. Samples of the brain and other tissues were excised, weighed, and counted. As shown below in Table III, the ratios at 4 hours are consistent with the regional distribution pattern of central cholinergic neurons. […] | ^a N = 5 per group. Mice (CD1) weighed 19-21 g. Concentrations are | normalized to a 20 g mouse. […] | prior to i.v. tracer injection; all amimals were killed 4 h after tracer | injection. Controls received an equal volume of vehicle. In vivo

[7] = tested on: central cholinergic neurons; assay: as above; format: in vivo, CD-1 mice
Experimental: as §1

[8] = ± S.D., normalized to a 25 g mouse
[9] = Blocked: (±)-vesamicol 0.53 mg/kg, ip, 10 min prior, 4 h after i.v. tracer
[10] = Control, 4 h after i.v. injection
[11] = pretreatment with cold (±)-vesamicol 0.53 mg/kg, ip

Q: For O[C@@H]1CCCC[C@H]1N1CCC(c2ccccc2)CC1 (relative stereo) [Vesamicol, trans-2-(4-phenylpiperidino)-cyclohexanol], which “Inhibition of vesicular sequestration of acetylcholine (in words)” value [1] is on record?
A: potent inhibitor of the vesicular sequestration of acetylcholine

Q: Which “Concentration ratio [L. atrium]/[L. ventricle]” value (cholinergic neurons [2]) does the source give for O[C@@H]1Cc2cccc([125I])c2C[C@H]1N1CCC(c2ccccc2)CC1 (relative stereo) [[^125 I]-(±)-IBVM, (±)-trans-2-hydroxy-5-iodo-3-(4-phenylpiperidino)tetralin] here?
A: 4.7

Q: And the “Concentration ratio [cortex]/[blood]” value (cholinergic neurons [2])?
A: 2.3

Q: What about the “Concentration ratio [cortex]/[cerebellum]” value (cholinergic neurons [2]) of the same compound?
A: 5.9

Q: And the “Concentration ratio [striatum]/[cerebellum]” value (cholinergic neurons [2])?
A: 16.5

Q: What about the “% of dose injected, whole brain” value (cholinergic neurons [2]; normalized to a 25 g mouse) of the same compound?
A: 0.56 ± .07 % OF DOSE INJECTED

Q: And the “Concentration, cerebellum” value (cholinergic neurons [2]; [8])?
A: 0.20 ± .04 % DOSE/G

Q: What about the “Concentration, cerebral cortex” value (cholinergic neurons [2]; [8]) of the same compound?
A: 1.17 ± .20 % DOSE/G

Q: And the “Concentration, striatum” value (cholinergic neurons [2]; [8])?
A: 3.29 ± .52 % DOSE/G

Q: Which results are given for O[C@H]1Cc2cccc([125I])c2C[C@@H]1N1CCC(c2ccccc2)CC1 [[^125 I]-(+)-IBVM]?
A: Initial striatal uptake of the two enantiomers (in words) (cholinergic neurons [3]; mouse striatum): nearly identical initial striatal uptake; Striatal washout (in words) (cholinergic neurons [3]; mouse striatum): rapidly washes out of the striatum; Striatal level within 4 hours (in words) (cholinergic neurons [3]; mouse striatum, within 4 hours): nearly absent from this tissue; tissue uptake at 4 h (in vivo; cerebellum): 0.06 ± 0.01 %ID/g; tissue uptake at 4 h (in vivo; cerebral cortex): 0.12 ± 0.01 %ID/g; tissue uptake at 4 h (in vivo; striatum): 0.26 ± 0.04 %ID/g; Concentration ratio [L. atrium]/[L. ventricle] (cholinergic neurons [2]): 0.9; Concentration ratio [cortex]/[blood] (cholinergic neurons [2]): 0.3; Concentration ratio [cortex]/[cerebellum] (cholinergic neurons [2]): 2.0; Concentration ratio [striatum]/[cerebellum] (cholinergic neurons [2]): 4.3; % of dose injected, whole brain (cholinergic neurons [2]; normalized to a 25 g mouse): 0.06 ± .01 % OF DOSE INJECTED

Q: With O[C@@H]1Cc2cccc([125I])c2C[C@H]1N1CCC(c2ccccc2)CC1 [[^125 I]-(-)-IBVM] as the compound, how does the “Neuronal specificity in cortex and striatum” value (cholinergic neurons [3]; 4-24 h, 4 h activity of (+)-enantiomer as estimate of non-neuronal binding) read?
A: > 95%

Q: And the “Specific neuronal binding in cortex and striatum” value (cholinergic neurons [3]; 4 to 24 h, cerebellar concentration as approximation of non-neuronal binding)?
A: > 95%

Q: What about the “Radioactivity in cerebral cortex and striatum over time (in words)” value (cholinergic neurons [3]; 4 to 24 hours following injection) of the same compound?
A: remains at a high and fairly constant level

Q: What about the “Initial striatal uptake of the two enantiomers (in words)” value (cholinergic neurons [3]; mouse striatum) of the same compound?
A: nearly identical initial striatal uptake

Q: What about the “Lowering of 4 hour striatal and cortical accumulation” value (cholinergic neurons [4]; pretreatment with unlabeled (-)-vesamicol hydrochloride 605 μg/kg, 10 min prior to tracer) of the same compound?
A: 65%

Q: And the “Physiological activity versus the other enantiomer (in words)” value [5]?
A: more physiologically active than the positive

Q: And the “Accumulation in striatum by autoradiography (in words)” value (striatum)?
A: selective accumulation of tracer in the striatum

Q: What about the tissue uptake at 4 h (in vivo; cerebellum) of the same compound?
A: 0.23 ± 0.04 %ID/g

Q: What about the tissue uptake at 4 h (in vivo; striatum) of the same compound?
A: 6.26 ± 0.46 %ID/g

Q: And the “Concentration ratio [L. atrium]/[L. ventricle]” value (cholinergic neurons [2])?
A: 5.5

Q: What about the “Concentration ratio [cortex]/[blood]” value (cholinergic neurons [2]) of the same compound?
A: 6.2

Q: What about the “Concentration ratio [cortex]/[cerebellum]” value (cholinergic neurons [2]) of the same compound?
A: 11.1

Q: And the “Concentration ratio [striatum]/[cerebellum]” value (cholinergic neurons [2])?
A: 27.2

Q: And the “% of dose injected, whole brain” value (cholinergic neurons [2]; normalized to a 25 g mouse)?
A: 1.03 ± .07 % OF DOSE INJECTED

Q: And the “Concentration, cerebral cortex” value (cholinergic neurons [2]; [8])?
A: 2.56 ± .21 % DOSE/G

Q: And the tissue uptake at 4 h ([6]; blood, Blocked: (±)-vesamicol 0.53 mg/kg, ip, 10 min prior, 4 h after i.v. tracer, read-out: Concentration, blood)?
A: 0.45 ± 0.1 %ID/g

Q: And the tissue uptake at 4 h ([6]; blood, Control, 4 h after i.v. injection, read-out: Concentration, blood)?
A: 1.01 ± 0.7 %ID/g

Q: What about the tissue uptake at 4 h ([6]; cerebellum, Blocked: (±)-vesamicol 0.53 mg/kg, ip, 10 min prior, 4 h after i.v. tracer, read-out: Concentration, cerebellum) of the same compound?
A: 0.24 ± 0.1 %ID/g

Q: What about the tissue uptake at 4 h ([6]; cerebellum, Control, 4 h after i.v. injection, read-out: Concentration, cerebellum) of the same compound?
A: 0.26 ± 0.06 %ID/g

Q: What about the tissue uptake at 4 h ([6]; cortex, Blocked: (±)-vesamicol 0.53 mg/kg, ip, 10 min prior, 4 h after i.v. tracer, read-out: Concentration, cortex) of the same compound?
A: 0.69 ± 0.13 %ID/g

Q: What about the tissue uptake at 4 h ([6]; cortex, Control, 4 h after i.v. injection, read-out: Concentration, cortex) of the same compound?
A: 1.46 ± 0.25 %ID/g

Q: What about the tissue uptake at 4 h ([6]; striatum, Blocked: (±)-vesamicol 0.53 mg/kg, ip, 10 min prior, 4 h after i.v. tracer, read-out: Concentration, striatum) of the same compound?
A: 1.97 ± 0.35 %ID/g

Q: What about the tissue uptake at 4 h ([6]; striatum, Control, 4 h after i.v. injection, read-out: Concentration, striatum) of the same compound?
A: 4.12 ± 0.65 %ID/g

Q: And the Tissue ratio cortex/cerebellum [7, 9]?
A: 2.9

Q: And the Tissue ratio striatum/cerebellum [7, 9]?
A: 8.2

Q: What about the Tissue ratio cortex/cerebellum [7, 10] of the same compound?
A: 5.6

Q: What about the Tissue ratio striatum/cerebellum [7, 10] of the same compound?
A: 15.8

Q: And the “Change of cerebellum accumulation of radioactivity” value [7, 11]?
A: -8%

Q: And the “Change of striatal and cortical accumulation of radioactivity” value [7, 11]?
A: -53%

Q: What does the source list for (-)-vesamicol [reference compound]?
A: Toxicity limitation of dose (in words) (cholinergic neurons [4]; doses larger than 605 μg/kg): larger doses of (-)-vesamicol could not be injected due to toxicity limitations; Potency relative to (+)-vesamicol ([1]; enantioselectivity versus (+)-vesamicol): 25 times more potent

— patent US5077035A, “Radioiodinated benzovesamicol analogs for cholinergic nerve mapping” (priority 1990, dated 1991)
